Results on one molecule are retold here after ChEMBL document CHEMBL5712093, “The histone methyltransferase SMYD2 is a novel therapeutic target for the induction of apoptosis in ovarian clear cell carcinoma cells” (Oncol Lett, 2020).

What all share (format): functional, cell-based
Assay [1] in a line: Anti-proliferative activity against human OVTOKO cells assessed as cell viability incubated for 24 hrs by CCK-8 assay. (In general: Tetrazolium assays rely on reduction of a dye to a coloured formazan, in cell work by metabolically active cells.)
A short description of assay [2]: Anti-proliferative activity against human OVMANA cells assessed as cell viability incubated for 24 hrs by CCK-8 assay.
The subject of assay [3] is TOV21G. Description: Anti-proliferative activity against human TOV-21G cells assessed as cell viability incubated for 24 hrs by CCK-8 assay.

Broadly, the IC50 is the concentration that gives 50% inhibition.

Each structure is given as a SMILES string.

Consider `Cc1cn(CCN2CCN(c3ccccc3-c3cc(C#N)cc(C(=O)NCCCN4CCCC4)c3)CC2)c2ccccc12`, for which the IC50 in assay [1] was 950 nM; in assay [2] it was 1170 nM; in assay [3], 1200 nM.
